≈ marks a conversion by molar mass, not a printed value. Where two headings read alike, the source gives them in different places. *1 amine or outer side, *2 acyl side, *3 side chain or, on linkers, in order; H or OH if unused. Where a SMILES comes first, the peptide text is derived from it. Bridges are numbered along the chain shown (N, C = ends). [ ]: non-standard residue; d: D form. The star is where a group is joined. ξ: configuration not given here. Phe(3,5-F2) = N[C@@H](Cc1cc(F)cc(F)c1)C(=O)O; NH(1-Me-indolin-5-yl) = CN1CCc2cc(N*)ccc21; Morpholine(3S-CO) = O=C(O)[C@@H]1COCCN1; NH(4-Cl-2-F-phenyl) = Fc1cc(Cl)ccc1N*; Pro(4R-Me) = C[C@H]1CN[C@H](C(=O)O)C1; Hyp = O=C(O)[C@@H]1C[C@@H](O)CN1; NMeT = CN[C@H](C(=O)O)[C@@H](C)O; Heptenoyl(2E) = CCCC/C=C/C(=O)*; ξNMeThr = CNC(C(=O)O)[C@@H](C)O; aThr = C[C@H](O)[C@H](N)C(=O)O; Pip = O=C(O)[C@@H]1CCCCN1; CO = O=C([*:1])[*:2]
Tests used:
Sa-ClpP = target: T1, Sa-ClpP (Staphylococcus aureus, UniProt Q2G036); assay: ADEP displacement fluorescence polarization assay (FP probe ADEP 2591); format: binding
T1 construct: made in house; host or cells: E. coli BL21(DE3)
T1 sequence (Q2G036 1-195): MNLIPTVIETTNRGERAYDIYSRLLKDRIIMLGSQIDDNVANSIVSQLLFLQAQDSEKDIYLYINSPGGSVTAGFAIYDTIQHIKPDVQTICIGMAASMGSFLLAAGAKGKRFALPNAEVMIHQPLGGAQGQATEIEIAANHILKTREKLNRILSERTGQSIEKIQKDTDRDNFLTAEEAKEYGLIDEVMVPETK
Procedure, shortened: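 Master mix of 15 μM S. aureus ClpP with 50 nM TAMRA-labelled ADEP 2591 probe in Tris-HCl pH 8.0, 2% DMSO, was pre-equilibrated 1 h, then incubated with compound 120 min at room temperature. Polarization (ex 530, em 579 nm) was normalized to 200 μM ADEP 2378 and DMSO controls; four-parameter fits, triplicate.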

[1] = Cytotoxicity assay (CellTiter-Glo cell viability, 72 hours); format: cell-based; settings: African green monkey
Procedure, shortened: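 Vero cells, 5000/well, grown overnight at 37° C, 5% CO2 in DMEM with 10% FBS, then exposed to serial compound dilutions or DMSO for 72 hours. Viability read by CellTiter-Glo luminescence. IC50 from duplicate wells, reported as range over two independent experiments.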

[2] = test system: Bacillus subtilis, ATCC 23857; assay: Minimal inhibitory concentration assay (microbroth dilution); format: cell-based
Procedure, shortened: (§1)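 Broth microdilution per CLSI M7-A7: two-fold serial dilutions of compound in broth (top final concentration 200 μM) were inoculated with ~10^5 cfu/mL bacteria and incubated aerobically overnight at 37 °C. MIC was read visually as the lowest concentration preventing growth.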

[3] = test system: Staphylococcus aureus, ATCC 29213; assay: as above; format: cell-based; settings: ATCC29213, read-out: Minimal Inhibitory Concentrations S. aureus ATCC 29213
Procedure, shortened: as §1

[4] = test system: Staphylococcus aureus, NRS70; assay: as above; format: cell-based
Procedure, shortened: as §1

[5] = Bacillus subtilis, ATCC23857; read-out: Minimal Inhibitory Concentrations B. subtilis ATCC 23857
[6] = Staphylococcus aureus, NRS70; read-out: Minimal Inhibitory Concentrations S. aureus NRS70
[7] = Vero cells, 72 hours, growth inhibition, read-out: Cytotoxicity IC50
[8] = Bacillus subtilis, ATCC23857, read-out: Minimal Inhibitory Concentrations B. subtilis ATCC 23857
[9] = Staphylococcus aureus, NRS70, read-out: Minimal Inhibitory Concentrations S. aureus NRS70

| Structure (SMILES) | IC50 (Sa-ClpP) [µM] | IC50 at 72 h [1] [µM] | MIC [2, 5] [µM] | MIC [3] [µM] | MIC [4, 6] [µM] | IC50 at 72 h [1, 7] [µM] | MIC [2, 8] [µM] | MIC [4, 9] [µM] |
| --- | --- | --- | --- | --- | --- | --- | --- | --- |
| C[C@@H]1C[C@H]2C(=O)O[C@@H](C)[C@H](NC(=O)[C@H](Cc3cc(F)cc(F)c3)NC(=O)Nc3ccc(Cl)cc3F)C(=O)N3CCC[C@H]3C(=O)N3CCCC[C@H]3C(=O)N[C@@H](C)C(=O)N2C1 [Compound 307, (S)-2-(3-(4-chloro-2-fluorophenyl)ureido)-3-(3,5-difluorophenyl)-N-((2R,6S,8aS,14aS,20S,21S,23aS)-2,6,21-trimethyl-5,8,14,19,23-pentaoxooctadecahydro-1H,5H,14H,19H-pyrido[2,1-i]dipyrrolo[2,1-c:2′,1′-l][1]oxa[4,7,10,13]tetraazacyclo-hexadecin-20-yl)propanamide] ({NH(4-Cl-2-F-phenyl)-CO}-[Phe(3,5-F2)][aThr]P[Pip]A[Pro(4R-Me)]; ester 2-C) | 7.8 ± 0.4 | 9.5 ± 0.8 | 0.039 (≈ 0.033 µg/mL) | 0.039 (≈ 0.033 µg/mL) | 0.039 (≈ 0.033 µg/mL) |  |  |  |
| CCCC/C=C/C(=O)N[C@@H](Cc1cc(F)cc(F)c1)C(=O)N[C@@H]1C(=O)N2CCC[C@H]2C(=O)N(C)[C@@H]([C@@H](C)O)C(=O)N[C@@H](C)C(=O)N2C[C@H](C)C[C@H]2C(=O)O[C@H]1C [Compound 308, (E)-N—((S)-3-(3,5-difluorophenyl)-1-(((2R,6S,9S,11aS,17S,18S,20aS)-9-((R)-1-hydroxyethyl)-2,6,10,18-tetramethyl-5,8,11,16,20-pentaoxohexadecahydro-1H,5H,16H-dipyrrolo[2,1-c:2′,1′-l][1]oxa[4,7,10,13]tetraazacyclohexadecin-17-yl)amino)-1-oxopropan-2-yl)hept-2-enamide] ({Heptenoyl(2E)}-[Phe(3,5-F2)][aThr]P[NMeT]A[Pro(4R-Me)]; ester 2-C) | 4.4 ± 0.3 | 38.6 ± 1.1 | < 0.02 | 0.039 (≈ 0.0308 µg/mL) | 0.039 (≈ 0.0308 µg/mL) |  |  |  |
| CCCC/C=C/C(=O)N[C@@H](Cc1cc(F)cc(F)c1)C(=O)N[C@@H]1C(=O)N2C[C@H](O)C[C@H]2C(=O)N2CCOC[C@H]2C(=O)N[C@@H](C)C(=O)N2C[C@H](C)C[C@H]2C(=O)O[C@H]1C [Compound 309, (E)-N—((S)-3-(3,5-difluorophenyl)-1-(((6aS,8R,12S,13S,15aS,17R,21S,23aS)-8-hydroxy-13,17,21-trimethyl-6,11,15,20,23-pentaoxooctadecahydro-6H,11H,15H-[1,4]oxazino[3,4-i]dipyrrolo[2,1-c:2′,1′-l][1]oxa[4,7,10,13]tetraazacyclohexadecin-12-yl)amino)-1-oxopropan-2-yl)hept-2-enamide] ({Heptenoyl(2E)}-[Phe(3,5-F2)][aThr][Hyp][Morpholine(3S-CO)]A[Pro(4R-Me)]; ester 2-C) | 7.2 ± 0.4 | > 100 | 0.156 (≈ 0.125 µg/mL) | 0.156 (≈ 0.125 µg/mL) | 0.156 (≈ 0.125 µg/mL) |  |  |  |
| C[C@@H]1C[C@H]2C(=O)O[C@@H](C)[C@H](NC(=O)[C@H](Cc3cc(F)cc(F)c3)NC(=O)Nc3ccc4c(c3)CCN4C)C(=O)N3CCC[C@H]3C(=O)N3CCCC[C@H]3C(=O)N[C@@H](C)C(=O)N2C1 [Compound 310, (S)-3-(3,5-difluorophenyl)-2-(3-(1-methylindolin-5-yl)ureido)-N-((2R,6S,8aS,14aS,20S,21S,23aS)-2,6,21-trimethyl-5,8,14,19,23-pentaoxooctadecahydro-1H,5H,14H,19H-pyrido[2,1-i]dipyrrolo[2,1-c:2′,1′-l][1]oxa[4,7,10,13]tetraazacyclo-hexadecin-20-yl)propanamide] ({NH(1-Me-indolin-5-yl)-CO}-[Phe(3,5-F2)][aThr]P[Pip]A[Pro(4R-Me)]; ester 2-C) | 6.9 ± 0.3 |  |  | 0.078 (≈ 0.0662 µg/mL) |  | 0.4 ± 0.01 | 0.078 (≈ 0.0662 µg/mL) | 0.156 (≈ 0.132 µg/mL) |
| C[C@@H]1C[C@H]2C(=O)O[C@@H](C)[C@H](NC(=O)[C@H](Cc3cc(F)cc(F)c3)NC(=O)Nc3ccc4c(c3)CCN4C)C(=O)N3CCC[C@H]3C(=O)N(C)C([C@@H](C)O)C(=O)N[C@@H](C)C(=O)N2C1 (stereo partly drawn) [Compound 311, (S)-3-(3,5-difluorophenyl)-N-((2R,6S,9R,11aS,17S,18S,20aS)-9-((R)-1-hydroxyethyl)-2,6,10,18-tetramethyl-5,8,11,16,20-pentaoxohexadecahydro-1H,5H,16H-dipyrrolo[2,1-c:2′,1′-l][1]oxa[4,7,10,13]tetraazacyclohexadecin-17-yl)-2-(3-(1-methylindolin-5-yl)ureido)propanamide] ({NH(1-Me-indolin-5-yl)-CO}-[Phe(3,5-F2)][aThr]P[ξNMeThr]A[Pro(4R-Me)]; ester 2-C) | 7.5 ± 0.3 |  |  | 0.156 (≈ 0.133 µg/mL) |  | 14.3 ± 0.3 | 0.313 (≈ 0.267 µg/mL) | 0.156 (≈ 0.133 µg/mL) |
| C[C@@H]1C[C@H]2C(=O)O[C@@H](C)[C@H](NC(=O)[C@H](Cc3cc(F)cc(F)c3)NC(=O)Nc3ccc4c(c3)CCN4C)C(=O)N3CCC[C@H]3C(=O)N3CCOC[C@H]3C(=O)N[C@@H](C)C(=O)N2C1 [Compound 312, (S)-3-(3,5-difluorophenyl)-2-(3-(1-methylindolin-5-yl)ureido)-N-((6aS,12S,13S,15aS,17R,21S,23aS)-13,17,21-trimethyl-6,11,15,20,23-pentaoxooctadecahydro-6H,11H,15H-[1,4]oxazino[3,4-i]dipyrrolo[2,1-c:2′,1′-l][1]oxa[4,7,10,13]tetraazacyclo-hexadecin-12-yl)propanamide] ({NH(1-Me-indolin-5-yl)-CO}-[Phe(3,5-F2)][aThr]P[Morpholine(3S-CO)]A[Pro(4R-Me)]; ester 2-C) | 6.3 ± 0.4 |  |  | 0.156 (≈ 0.133 µg/mL) |  | 2.87 | 0.313 (≈ 0.266 µg/mL) | 0.078 (≈ 0.0664 µg/mL) |
| C[C@@H]1C[C@H]2C(=O)O[C@@H](C)[C@H](NC(=O)[C@H](Cc3cc(F)cc(F)c3)NC(=O)Nc3ccc(Cl)cc3F)C(=O)N3CCC[C@H]3C(=O)N(C)C([C@@H](C)O)C(=O)N[C@@H](C)C(=O)N2C1 (stereo partly drawn) [Compound 313, (S)-2-(3-(4-chloro-2-fluorophenyl)ureido)-3-(3,5-difluorophenyl)-N-((2R,6S,9R,11aS,17S,18S,20aS)-9-((R)-1-hydroxyethyl)-2,6,10,18-tetramethyl-5,8,11,16,20-pentaoxohexadecahydro-1H,5H,16H-dipyrrolo[2,1-c:2′,1′-l][1]oxa[4,7,10,13]tetraazacyclohexadecin-17-yl)propanamide] ({NH(4-Cl-2-F-phenyl)-CO}-[Phe(3,5-F2)][aThr]P[ξNMeThr]A[Pro(4R-Me)]; ester 2-C) | 7.3 ± 0.5 | 13.5 ± 3.9 | < 0.02 | < 0.02 | < 0.02 |  |  |  |
| C[C@@H]1C[C@H]2C(=O)O[C@@H](C)[C@H](NC(=O)[C@H](Cc3cc(F)cc(F)c3)NC(=O)Nc3ccc(Cl)cc3F)C(=O)N3CCC[C@H]3C(=O)N3CCOC[C@H]3C(=O)N[C@@H](C)C(=O)N2C1 [Compound 314, (S)-2-(3-(4-chloro-2-fluorophenyl)ureido)-3-(3,5-difluorophenyl)-N-((6aS,12S,13S,15aS,17R,21S,23aS)-13,17,21-trimethyl-6,11,15,20,23-pentaoxooctadecahydro-6H,11H,15H-[1,4]oxazino[3,4-i]dipyrrolo[2,1-c:2′,1′-l][1]oxa[4,7,10,13]tetraazacyclo-hexadecin-12-yl)propanamide] ({NH(4-Cl-2-F-phenyl)-CO}-[Phe(3,5-F2)][aThr]P[Morpholine(3S-CO)]A[Pro(4R-Me)]; ester 2-C) | 7.2 ± 0.3 | 2.39 ± 0.8 | < 0.02 | < 0.02 | < 0.02 |  |  |  |
| C[C@@H]1C[C@H]2C(=O)O[C@@H](C)[C@H](NC(=O)[C@H](Cc3cc(F)cc(F)c3)NC(=O)Nc3ccc4c(c3)CCN4C)C(=O)N3C[C@H](O)C[C@H]3C(=O)N3CCOC[C@H]3C(=O)N[C@@H](C)C(=O)N2C1 [Compound 315, (S)-3-(3,5-difluorophenyl)-N-((6aS,8R,12S,13S,15aS,17R,21S,23aS)-8-hydroxy-13,17,21-trimethyl-6,11,15,20,23-pentaoxooctadecahydro-6H,11H,15H-[1,4]oxazino[3,4-i]dipyrrolo[2,1-c:2′,1′-l][1]oxa[4,7,10,13]tetraazacyclohexadecin-12-yl)-2-(3-(1-methylindolin-5-yl)ureido)propanamide] ({NH(1-Me-indolin-5-yl)-CO}-[Phe(3,5-F2)][aThr][Hyp][Morpholine(3S-CO)]A[Pro(4R-Me)]; ester 2-C) | 13.5 ± 0.6 |  |  | 5 (≈ 4.33 µg/mL) |  | > 100 | 20 (≈ 17.3 µg/mL) | 5 (≈ 4.33 µg/mL) |

— patent publication US10457707B2, “Substituted urea depsipeptide analogs as activators of the CLPP endopeptidase” (priority 2015, dated 2019)
